Data taken from paper PMC7584476, “Safety and efficacy of BAY1436032 in IDH1-mutant AML: phase I study results” (Leukemia, 2020).

Tested on: subjects with mIDH1 advanced AML
Experiment: Phase I study: safety and tolerability (TEAE, DLT, MTD, ECG)
Type: in vivo
Method: This study was an open-label, nonrandomized, multicenter phase I trial. Subjects were screened at 13 hospital sites in 2 countries (USA and Germany). The study was to consist of dose-escalation followed by dose-expansion. The MTD identified in dose-escalation was to be used in the dose-expansion. If MTD was not reached in dose-escalation, a dose for the expansion would be selected based on available PK, pharmacodynamic, safety, and efficacy data. BAY1436032 was administered twice-daily (BID) in continuous 28-day cycles. In dose-escalation, up to 9 evaluable subjects could be enrolled per cohort, with a minimum of 3 dose-limiting toxicity (DLT)-free evaluable subjects required prior to escalating to the next highest dose. Bayesian dose-DLT modeling was performed to help guide dosing decisions.
DLTs were differentially defined for nonhematopoietic versus hematopoietic toxicities. Nonhematopoietic toxicities of ≥grade 3 occurring during the first cycle of treatment were to be considered DLTs with the following exceptions: (1) Alopecia and nausea controlled by medical management; (2) Tumor lysis syndrome if successfully managed clinically and resolved within 7 days without any end-organ damage; (3) Differentiation syndrome (DS) if successfully managed clinically and resolved within 7 days without any end-organ damage; (4) Asymptomatic ≥grade 3 electrolyte abnormalities not considered clinically significant by the investigator. […] For certain toxicities such as laboratory assessments without a clear clinical correlate, a discussion between the investigator and the sponsor determined whether the adverse event (AE) should be assessed as a DLT.
DLTs identified during the first cycle of treatment were used to guide dose-escalation decisions and to determine the MTD, and if safety issues appeared in subsequent cycles they were also to be considered. Hydroxyurea was permitted during the first cycle if white blood cell (WBC) exceeded 20 × 10^9/L and was also permitted for treatment of DS.
Safety and tolerability were evaluated by analysis of adverse events, physical examinations, vital signs, ECOG performance status, and various laboratory assessments. For safety monitoring, subjects were scheduled for clinic visits every week for the initial three cycles of treatment, after which time visits could be reduced to every-other-week with investigator and sponsor agreement. Cardiac function was assessed with triplicate 12-lead electrocardiograms (ECG) at screening, C1-D1, C1-D2, C1-D15, D1 of every subsequent cycle, and at treatment end. […] AEs are presented by the Medical Dictionary for Regulatory Activities (MedDRA) v21.1.

Compound: C[C@H]1C[C@@H](n2c(Nc3ccc(OC(F)(F)F)cc3)nc3cc(CCC(=O)O)ccc32)CC(C)(C)C1 [BAY1436032]
- TEAE Hypokalaemia Grade 1 (1200 mg BID, n=7): 1
- TEAE Hypokalaemia Grade 2 (1200 mg BID, n=7): 0
- TEAE Hypokalaemia Grade 3 (1200 mg BID, n=7): 0
- TEAE Hyponatraemia Grade 1 (1200 mg BID, n=7): 0
- TEAE Hyponatraemia Grade 3 (1200 mg BID, n=7): 0
- TEAE Hypophosphataemia Grade 1 (1200 mg BID, n=7): 0
- TEAE Hypophosphataemia Grade 2 (1200 mg BID, n=7): 0
- TEAE Leukocytosis Grade 2 (1200 mg BID, n=7): 1
- TEAE Leukocytosis Grade 3 (1200 mg BID, n=7): 0
- TEAE Lung infection Grade 3 (1200 mg BID, n=7): 1
- TEAE Lung infection Grade 5 (1200 mg BID, n=7): 0
- TEAE Nausea Grade 1 (1200 mg BID, n=7): 2
- TEAE Nausea Grade 2 (1200 mg BID, n=7): 0
- TEAE Nausea Grade 3 (1200 mg BID, n=7): 0
- TEAE Oedema peripheral Grade 1 (1200 mg BID, n=7): 2
- TEAE Oedema peripheral Grade 3 (1200 mg BID, n=7): 0
- TEAE Pain in extremity Grade 1 (1200 mg BID, n=7): 1
- TEAE Pain in extremity Grade 2 (1200 mg BID, n=7): 0
- TEAE Pneumonia Grade 1 (1200 mg BID, n=7): 0
- TEAE Pneumonia Grade 2 (1200 mg BID, n=7): 1
- TEAE Pneumonia Grade 3 (1200 mg BID, n=7): 1
- TEAE Pneumonia fungal Grade 2 (1200 mg BID, n=7): 0
- TEAE Pneumonia fungal Grade 3 (1200 mg BID, n=7): 0
- TEAE Pneumonia fungal Grade 4 (1200 mg BID, n=7): 0
- TEAE Productive cough Grade 1 (1200 mg BID, n=7): 1
- TEAE Productive cough Grade 2 (1200 mg BID, n=7): 0
- TEAE Pyrexia Grade 1 (1200 mg BID, n=7): 1
- TEAE Pyrexia Grade 2 (1200 mg BID, n=7): 0
- TEAE Pyrexia Grade 3 (1200 mg BID, n=7): 0
- TEAE Rash Grade 1 (1200 mg BID, n=7): 1
- TEAE Rash Grade 2 (1200 mg BID, n=7): 0
- TEAE Sepsis Grade 4 (1200 mg BID, n=7): 0
- TEAE Sepsis Grade 5 (1200 mg BID, n=7): 0
- TEAE Sinus tachycardia Grade 1 (1200 mg BID, n=7): 0
- TEAE Thrombocytopenia Grade 4 (1200 mg BID, n=7): 1
- TEAE Vomiting Grade 1 (1200 mg BID, n=7): 0
- TEAE Weight decreased Grade 1 (1200 mg BID, n=7): 1
- TEAE Weight decreased Grade 2 (1200 mg BID, n=7): 2
- TEAE Weight decreased Grade 3 (1200 mg BID, n=7): 0
- Related TEAE Decreased appetite Grade 1 (1500 mg BID, n=9): 0
- Related TEAE Decreased appetite Grade 2 (1500 mg BID, n=9): 0
- Related TEAE Diarrhea Grade 2 (1500 mg BID, n=9): 0
- Related TEAE Differentiation syndrome Grade 2 (1500 mg BID, n=9): 1
- Related TEAE Differentiation syndrome Grade 3 (1500 mg BID, n=9): 0
- Related TEAE Dyspnea Grade 1 (1500 mg BID, n=9): 0
- Related TEAE Dyspnea Grade 2 (1500 mg BID, n=9): 0
- Related TEAE Fatigue Grade 1 (1500 mg BID, n=9): 0
- Related TEAE Fatigue Grade 2 (1500 mg BID, n=9): 0
- Related TEAE Fatigue Grade 3 (1500 mg BID, n=9): 1
- Related TEAE Hypomagnesaemia Grade 1 (1500 mg BID, n=9): 1
- Related TEAE Nausea Grade 1 (1500 mg BID, n=9): 1
- Related TEAE Nausea Grade 2 (1500 mg BID, n=9): 0
- Related TEAE Sinus tachycardia Grade 1 (1500 mg BID, n=9): 1
- Related TEAE Vomiting Grade 1 (1500 mg BID, n=9): 1
- TEAE Abdominal pain upper Grade 1 (1500 mg BID, n=9): 2
- TEAE Abdominal pain upper Grade 2 (1500 mg BID, n=9): 1
- TEAE Acute kidney injury Grade 1 (1500 mg BID, n=9): 0
- TEAE Acute kidney injury Grade 2 (1500 mg BID, n=9): 0
- TEAE Acute kidney injury Grade 3 (1500 mg BID, n=9): 0
- TEAE Anaemia Grade 3 (1500 mg BID, n=9): 0
- TEAE Anaemia Grade 4 (1500 mg BID, n=9): 0
- TEAE Anxiety Grade 1 (1500 mg BID, n=9): 0
- TEAE Anxiety Grade 2 (1500 mg BID, n=9): 1
- TEAE Arthralgia Grade 1 (1500 mg BID, n=9): 1
- TEAE Arthralgia Grade 2 (1500 mg BID, n=9): 1
- TEAE Constipation Grade 1 (1500 mg BID, n=9): 3
- TEAE Constipation Grade 2 (1500 mg BID, n=9): 0
- TEAE Contusion Grade 1 (1500 mg BID, n=9): 1
- TEAE Contusion Grade 2 (1500 mg BID, n=9): 1
- TEAE Cough Grade 1 (1500 mg BID, n=9): 0
- TEAE Cough Grade 2 (1500 mg BID, n=9): 1
- TEAE Decreased appetite Grade 1 (1500 mg BID, n=9): 2
- TEAE Decreased appetite Grade 2 (1500 mg BID, n=9): 1
- TEAE Decreased appetite Grade 3 (1500 mg BID, n=9): 1
- TEAE Diarrhea Grade 1 (1500 mg BID, n=9): 2
- TEAE Diarrhea Grade 2 (1500 mg BID, n=9): 1
- TEAE Dry skin Grade 1 (1500 mg BID, n=9): 1
- TEAE Dyspnoea Grade 1 (1500 mg BID, n=9): 1
- TEAE Dyspnoea Grade 2 (1500 mg BID, n=9): 0
- TEAE Dyspnoea Grade 3 (1500 mg BID, n=9): 1
- TEAE Epistaxis Grade 1 (1500 mg BID, n=9): 2
- TEAE Epistaxis Grade 2 (1500 mg BID, n=9): 0
- TEAE Epistaxis Grade 3 (1500 mg BID, n=9): 0
- TEAE Fall Grade 1 (1500 mg BID, n=9): 2
- TEAE Fatigue Grade 1 (1500 mg BID, n=9): 1
- TEAE Fatigue Grade 2 (1500 mg BID, n=9): 1
- TEAE Fatigue Grade 3 (1500 mg BID, n=9): 2
- TEAE Febrile neutropenia Grade 3 (1500 mg BID, n=9): 2
- TEAE General physical health deterioration Grade 3 (1500 mg BID, n=9): 2
- TEAE General physical health deterioration Grade 5 (1500 mg BID, n=9): 1
- TEAE Gingivitis Grade 1 (1500 mg BID, n=9): 0
- TEAE Haematuria Grade 1 (1500 mg BID, n=9): 0
- TEAE Haematuria Grade 2 (1500 mg BID, n=9): 0
- TEAE Haematuria Grade 3 (1500 mg BID, n=9): 1
- TEAE Headache Grade 1 (1500 mg BID, n=9): 0
- TEAE Headache Grade 2 (1500 mg BID, n=9): 0
- TEAE Headache Grade 3 (1500 mg BID, n=9): 1
- TEAE Hyperkalaemia Grade 1 (1500 mg BID, n=9): 0
- TEAE Hyperkalaemia Grade 4 (1500 mg BID, n=9): 0
- TEAE Hypertension Grade 2 (1500 mg BID, n=9): 2
- TEAE Hypertension Grade 3 (1500 mg BID, n=9): 0
- TEAE Hyperuricaemia Grade 1 (1500 mg BID, n=9): 1
- TEAE Hyperuricaemia Grade 3 (1500 mg BID, n=9): 0
- TEAE Hypokalaemia Grade 1 (1500 mg BID, n=9): 0
- TEAE Hypokalaemia Grade 2 (1500 mg BID, n=9): 1
- TEAE Hypokalaemia Grade 3 (1500 mg BID, n=9): 1
- TEAE Hyponatraemia Grade 1 (1500 mg BID, n=9): 0
- TEAE Hyponatraemia Grade 3 (1500 mg BID, n=9): 1
- TEAE Hypophosphataemia Grade 1 (1500 mg BID, n=9): 1
- TEAE Hypophosphataemia Grade 2 (1500 mg BID, n=9): 1
- TEAE Leukocytosis Grade 2 (1500 mg BID, n=9): 0
- TEAE Leukocytosis Grade 3 (1500 mg BID, n=9): 1
- TEAE Lung infection Grade 3 (1500 mg BID, n=9): 0
- TEAE Lung infection Grade 5 (1500 mg BID, n=9): 0
- TEAE Nausea Grade 1 (1500 mg BID, n=9): 1
- TEAE Nausea Grade 2 (1500 mg BID, n=9): 1
- TEAE Nausea Grade 3 (1500 mg BID, n=9): 2
- TEAE Oedema peripheral Grade 1 (1500 mg BID, n=9): 0
- TEAE Oedema peripheral Grade 3 (1500 mg BID, n=9): 1
- TEAE Pain in extremity Grade 1 (1500 mg BID, n=9): 0
- TEAE Pain in extremity Grade 2 (1500 mg BID, n=9): 1
- TEAE Pneumonia Grade 1 (1500 mg BID, n=9): 1
- TEAE Pneumonia Grade 2 (1500 mg BID, n=9): 0
- TEAE Pneumonia Grade 3 (1500 mg BID, n=9): 1
- TEAE Pneumonia fungal Grade 2 (1500 mg BID, n=9): 1
- TEAE Pneumonia fungal Grade 3 (1500 mg BID, n=9): 1
- TEAE Pneumonia fungal Grade 4 (1500 mg BID, n=9): 1
- TEAE Productive cough Grade 1 (1500 mg BID, n=9): 0
- TEAE Productive cough Grade 2 (1500 mg BID, n=9): 1
- TEAE Pyrexia Grade 1 (1500 mg BID, n=9): 2
- TEAE Pyrexia Grade 2 (1500 mg BID, n=9): 0
- TEAE Pyrexia Grade 3 (1500 mg BID, n=9): 3
- TEAE Rash Grade 1 (1500 mg BID, n=9): 0
- TEAE Rash Grade 2 (1500 mg BID, n=9): 2
- TEAE Sepsis Grade 4 (1500 mg BID, n=9): 0
